# Experimental data published in patent publication US7629340B2, “N-(6-membered aromatic ring)-amido anti-viral compounds” (SmithKline Beecham Corporation, priority 2005, dated 2009).
# Test: Replicon Assay (luciferase, ET cell line)
# Type: cell-based, HCV
# Conditions: Hepatitis C virus; % inhibition of replication relative to no compound control, test concentration of 10 μM; ET cells, luciferase read 48-72 hours; read-out: % inhib at 10 uM
# Method: A cell line, ET (Huh-lucubineo-ET) was used for screening of compounds of the present invention for HCV RNA dependent RNA polymerase. The ET cell line was stably transfected with RNA transcripts harboring a I389luc-ubi-neo/NS3-3′/ET; replicon with firefly luciferase-ubiquitin-neomycin phosphotransferase fusion protein and EMCV-IRES driven NS3-5B polyprotein containing the cell culture adaptive mutations (E1202G; T1280I; K1846T) (Krieger at al, 2001 and unpublished). The ET cells were grown in DMEM, supplemented with 10% fetal calf serum, 2 mM Glutamine, Penicillin (100 IU/mL)/Stretomycin (100 μg/mL), 1× nonessential amino acids, and 250 μg/mL G418 (“Geneticin”). They were all available through Life Technologies (Bethesda, Md.). The cells were plated at 0.5−1.0×10^4 cells/well in the 96 well plates and incubated for 24 hrs before adding nucleoside analogs. […] Luciferase activity were measured 48-72 hours later by adding a lysis buffer and the substrate (Catalog number Glo-lysis buffer E2661 and Bright-Glo luciferase system E2620 Promega, Madison, Wis.). Cells should not be too confluent during the assay. Percent inhibition of replication was plotted relative to no compound control. Under the same condition, cytotoxicity of the compounds was determined using cell proliferation reagent, WST-1 (Roche, Germany). The compounds showing antiviral activities, but no significant cytotoxicities were chosen to determine IC50 and TC50. For these determinations, 10 concentration of each compound were used. Concentrations for test compounds typically span a range of 500 fold. IC50 and TC50 values were calculated by fitting % inhibition at each concentration (I) to the following equation: % inhibition=100%/[1+10^(log IC50−log(I))*b] where b is Hill's coefficient.
row,SMILES,inhibition at 10 µM [%]
1,"O=C(Nc1cccc(-c2cccc(O)c2)c1)[C@@H]1CCCN1C(=O)OCc1ccccc1 [Compound 6092, 2-(3′-Hydroxy-biphenyl-3-ylcarbamoyl)-pyrrolidine-1-carboxylic acid benzyl ester]",95.3
2,"NC(=O)Nc1cccc(-c2cccc(NC(=O)[C@@H]3CCCN3C(=O)OCc3ccccc3)c2)c1 [Compound 6093, 2-(3′-Ureido-biphenyl-3-ylcarbamoyl)-pyrrolidine-1-carboxylic acid benzyl ester]",98.1
3,"O=C(Nc1cccc(-c2cccc3cc[nH]c23)c1)[C@@H]1CCCN1C(=O)OCc1ccccc1 [Compound 6094, 2-[3-(1H-Indol-7-yl)-phenylcarbamoyl]-pyrrolidine-1-carboxylic acid benzyl ester]",98.8
4,"Nc1cc(-c2cccc(NC(=O)[C@@H]3CCCN3C(=O)OCc3ccccc3)c2)cc(C(F)(F)F)c1 [Compound 6095, 2-(3′-Amino-5′-trifluoromethyl-biphenyl-3-ylcarbamoyl)-pyrrolidine-1-carboxylic acid benzyl ester]",61.6
5,"CN(C)c1cccc(-c2cccc(NC(=O)[C@@H]3CCCN3C(=O)OCc3ccccc3)c2)c1 [Compound 6096, 2-(3′-Dimethylamino-biphenyl-3-ylcarbamoyl)-pyrrolidine-1-carboxylic acid benzyl ester]",53.3
6,"O=C(Nc1cccc(-c2ccc3cc[nH]c3c2)c1)[C@@H]1CCCN1C(=O)OCc1ccccc1 [Compound 6097, 2-[3-(1H-Indol-6-yl)-phenylcarbamoyl]-pyrrolidine-1-carboxylic acid benzyl ester]",99.8
7,"O=C(NC1CC1)c1ccc(-c2cccc(NC(=O)[C@@H]3CCCN3C(=O)OCc3ccccc3)c2)cc1 [Compound 6301, 2-(4′-Cyclopropylcarbamoyl-biphenyl-3-ylcarbamoyl)-pyrrolidine-1-carboxylic acid benzyl ester]",99.1
8,"O=C(NC1CC1)c1csc(-c2cccc(NC(=O)[C@@H]3CCCN3C(=O)OCc3ccccc3)c2)n1 [Compound 6302, 2-[3-(4-Cyclopropylcarbamoyl-thiazol-2-yl)-phenylcarbamoyl]-pyrrolidine-1-carboxylic acid benzyl ester]",12.2
9,"O=C(Nc1cccc(-c2ccc3ncsc3c2)c1)[C@@H]1CCCN1C(=O)OCc1ccccc1 [Compound 6304, 2-(3-Benzothiazol-6-yl-phenylcarbamoyl)-pyrrolidine-1-carboxylic acid benzyl ester]",70.4
10,"O=C(NC1CC1)c1ccc(NC(=O)[C@@H]2CCCN2C(=O)OCc2ccccc2)cc1 [Compound 6305, 2-(4-Cyclopropylcarbamoyl-phenylcarbamoyl)-pyrrolidine-1-carboxylic acid benzyl ester]",88.2
11,"N#Cc1cccc(-c2cccc(NC(=O)[C@@H]3CCCN3C(=O)OCc3ccccc3)c2)c1 [Compound 6307, 2-(3′-Cyano-biphenyl-3-ylcarbamoyl)-pyrrolidine-1-carboxylic acid benzyl ester]",32.3
12,"O=C(NCc1ccc(-c2cccc(NC(=O)[C@@H]3CCCN3C(=O)OCc3ccccc3)c2)cc1)C1CC1 [Compound 6308, 2-{4′-[(Cyclopropanecarbonyl-amino)-methyl]-biphenyl-3-ylcarbamoyl}-pyrrolidine-1-carboxylic acid benzyl ester]",56.2
13,"O=C(Nc1cccc(-c2cccc([N+](=O)[O-])c2)c1)[C@@H]1CCCN1C(=O)OCc1ccccc1 [Compound 6309, 2-(3′-Nitro-biphenyl-3-ylcarbamoyl)-pyrrolidine-1-carboxylic acid benzyl ester]",99.8
14,"O=C(NC1CC1)c1cccc(-c2cccc(NC(=O)[C@@H]3CCCN3C(=O)OCc3ccccc3)c2)c1 [Compound 6310, 2-(3′-Cyclopropylcarbamoyl-biphenyl-3-ylcarbamoyl)-pyrrolidine-1-carboxylic acid benzyl ester]",78.4
15,"O=C(NCc1cccc(-c2cccc(NC(=O)[C@@H]3CCCN3C(=O)OCc3ccccc3)c2)c1)C1CC1 [Compound 6311, 2-{3′-[(Cyclopropanecarbonyl-amino)-methyl]-biphenyl-3-ylcarbamoyl}-pyrrolidine-1-carboxylic acid benzyl ester]",94.2
16,"O=C(Cc1cccc(-c2cccc(NC(=O)[C@@H]3CCCN3C(=O)OCc3ccccc3)c2)c1)NC1CC1 [Compound 6312, 2-(3′-Cyclopropylcarbamoylmethyl-biphenyl-3-ylcarbamoyl)-pyrrolidine-1-carboxylic acid benzyl ester]",68.6
